Where two headings read alike, the source gives them in different places.
Legend:
[1] = Phase 1 single ascending dose (SAD, Part A) safety and tolerability in healthy subjects; type: in vivo, human; conditions: for Most frequent TEAEs: Apthous ulcer / Most frequent TEAEs: Back pain / Most frequent TEAEs: Diarrhea / Most frequent TEAEs: Headache / Most frequent TEAEs: Pain in extremity / Subjects with TEAEs: Any TEAE / Subjects with TEAEs: Moderate or severe TEAE / Subjects with TEAEs: Seriou TEAE / Subjects with TEAEs: TEAE leading to discontinuation / Total number of TEAEs: SAD, n = 6
Description: This clinical study was the first in human study of a compound of formula (I). The purpose of this study was to assess the safety, tolerability and pharmacokinetics (PK) of the compound of formula (I) through single ascending dose administration (Part A) and multiple dose administrations (Part B) in healthy subjects.
The number and severity of treatment emergent adverse events (TEAE5) following single (Part A) or multiple (Parts B) oral doses of the compound of formula (I) and matching placebo, and changes in safety laboratory assessments, vital signs, and ECGs.
32 healthy, adult male and female subjects were enrolled in Part A. Four cohorts (A1 to A4) of 8 healthy subjects (6 active and 2 placebo) were evaluated.
(§1) In each cohort, healthy subjects meeting eligibility criteria were sequentially randomized in a 3:1 ratio to receive either the compound of formula (I) or matching placebo. Study drug was administered orally as a single dose on the morning of Day 1 following an overnight fast of at least 9.5 hours. Subjects were dosed in an upright (i.e., seated or standing) position and remained upright for 5 minutes following dosing prior to performing study procedures which require a posture change. Subjects were to remain fasted, except water, until after the 4-hour post-dose assessments were completed and the 4-hour post dose PK sample was collected. PK sampling for the compound of formula (I) in plasma and urine were taken Day 1 pre-dose and for 72 hours post-dose.
Safety was determined by evaluating physical examinations, vital signs, safety 12-lead electrocardiograms (ECGs) monitoring, clinical laboratory tests, and adverse events (AEs). For procedures scheduled to be performed at common times, collection of PK samples was collected as close as possible to the designated time. The cardiodynamic recordings via ECG extractions from the Holter monitor were conducted as close as possible prior to the corresponding PK sampling. Vital signs, followed by safety ECGs, were be taken before the PK sampling (or before the cardiodynamic sampling if scheduled at the same time), unless PK samples were late as a result in which case vital signs were taken following the PK sampling.
Safety analyses were performed using the Safety analysis set. Safety variables include vital signs, adverse events, clinical laboratory results (hematology, chemistry, coagulation, and urinalysis), and ECG parameters, such as Friderica's corrected QT interval (QTcF), PR interval, QT interval, QRS interval, and heart rate, from standard safety digital ECGs. Vital signs were summarized in terms of observed values and changes from baseline.

[2] = Phase 1 SAD (Part A) plasma and urine pharmacokinetics in healthy subjects; type: in vivo, human; conditions: for AUC(0-inf) / Cmax / Tmax / half-life: human, plasma; for Tmax: read-out: Tmax, median (min, max); for half-life: read-out: t1/2, mean (SD) (converted)
Description: The plasma PK parameters of the compound of formula (I) calculated following single (Part A) or multiple (Parts B) oral doses.
as §1
For all subjects, blood samples for the determination of plasma concentration of the compound of formula (I) were collected at scheduled time points. Blood samples were analyzed to calculate different plasma PK parameters in both part A and part B.
Urine samples for the determination of concentration of the compound of formula (I) were collected at various posedose intervals only in part A.
For all PK data analyses, the PK analysis set was used. Individual subject and mean plasma drug concentration versus time curves for the compound of formula (I) were presented for each dose group. Summary statistics (mean, standard deviation, coefficient of variation, median, minimum, maximum, geometric mean, geometric coefficient of variation, number of subjects) were calculated for plasma concentrations at each time point for each dose group, and the PK parameters for each dose group. Urine PK parameters were summarized for exploratory purposes.

[3] = single oral dose 1000 mg, n = 6
[4] = single oral dose 2000 mg, n = 6

## CN(C)C/C=C/C(=O)N1CC(COc2cc(-c3ccc(O)cc3)cc3[nH]ncc23)C1 [compound of formula (I)]
[1]; SAD cohorts
  serious AEs: No serious AEs
  severity of reported treatment-emergent AEs: mild
[1]; SAD cohorts, 2000 mg
  AEs considered related to study drug (diarrhea, abdominal discomfort, and vomiting): Three
[1]; SAD cohorts, any time point postdose
  changes from predose baseline in laboratory assessments (lipid, coagulation, hematology), vital signs or ECGs: No clinically significant changes
[1]; single oral dose 100 mg
  Most frequent TEAEs: Apthous ulcer: 1 (17)
  Most frequent TEAEs: Back pain: 1 (17)
  Most frequent TEAEs: Diarrhea: 0
  Most frequent TEAEs: Headache: 1 (17)
  Most frequent TEAEs: Pain in extremity: 3 (50)
  Subjects with TEAEs: Any TEAE: 4 (67)
  Subjects with TEAEs: Moderate or severe TEAE: 0
  Subjects with TEAEs: Seriou TEAE: 0
  Subjects with TEAEs: TEAE leading to discontinuation: 0
  Total number of TEAEs: 8
[1]; single oral dose 300 mg
  Most frequent TEAEs: Apthous ulcer: 0
  Most frequent TEAEs: Back pain: 0
  Most frequent TEAEs: Diarrhea: 0
  Most frequent TEAEs: Headache: 0
  Most frequent TEAEs: Pain in extremity: 1 (17)
  Subjects with TEAEs: Any TEAE: 2 (33)
  Subjects with TEAEs: Moderate or severe TEAE: 0
  Subjects with TEAEs: Seriou TEAE: 0
  Subjects with TEAEs: TEAE leading to discontinuation: 0
  Total number of TEAEs: 2
[1]; single oral dose 1000 mg
  Most frequent TEAEs: Apthous ulcer: 0
  Most frequent TEAEs: Back pain: 1 (17)
  Most frequent TEAEs: Diarrhea: 1 (17)
  Most frequent TEAEs: Headache: 0
  Most frequent TEAEs: Pain in extremity: 0
  Subjects with TEAEs: Any TEAE: 2 (33)
  Subjects with TEAEs: Moderate or severe TEAE: 0
  Subjects with TEAEs: Seriou TEAE: 0
  Subjects with TEAEs: TEAE leading to discontinuation: 0
  Total number of TEAEs: 6
[1]; single oral dose 2000 mg
  Most frequent TEAEs: Apthous ulcer: 1 (17)
  Most frequent TEAEs: Back pain: 0
  Most frequent TEAEs: Diarrhea: 1 (17)
  Most frequent TEAEs: Headache: 1 (17)
  Most frequent TEAEs: Pain in extremity: 0
  Subjects with TEAEs: Any TEAE: 3 (50)
  Subjects with TEAEs: Moderate or severe TEAE: 0
  Subjects with TEAEs: Seriou TEAE: 0
  Subjects with TEAEs: TEAE leading to discontinuation: 0
  Total number of TEAEs: 6
[1]; single dose up to 2000 mg
  tolerability: generally well-tolerated
[2]; across the studied single-dose range
  dose proportionality of exposure (AUC and Cmax): slightly less than dose proportional
[2]; all single-dose levels
  Urinary excretion, average: < 0.1%
[2]; both sexes, oral, part A (SAD), 100 to 2000 mg, read-out: AUC0-inf in the plasma of the subjects (range)
  AUC(0-inf): 2.7 to 172 ng·h/mL
[2]; both sexes, oral, part A (SAD), 100 to 2000 mg, read-out: average AUC0-inf
  AUC(0-inf): 8.38 to 96 ng·h/mL
[2]; both sexes, oral, single dose of 2000 mg, read-out: average Cmax
  Cmax: 10 ng/mL
[2]; po, 100 mg, single oral dose 100 mg, n = 6, read-out: AUCinf, mean (SD)
  AUC(0-inf): 8.4 ng·h/mL
[2]; po, 300 mg, single oral dose 300 mg, n = 6, read-out: AUCinf, mean (SD)
  AUC(0-inf): 24.6 ng·h/mL
[2]; po, 1000 mg, single oral dose 1000 mg, one subject excluded, read-out: AUCinf, mean (SD)
  AUC(0-inf): 47 ng·h/mL
[2]; po, 2000 mg, single oral dose 2000 mg, n = 6, read-out: AUCinf, mean (SD)
  AUC(0-inf): 96 ng·h/mL
[2]; single oral dose 100 mg, n = 6, read-out: Cmax, mean (SD)
  Cmax: 1.3 ng/mL
[2]; single oral dose 100 mg, n = 6
  Tmax: 1 h
  half-life: 17.5 h
  fe0-72 (percentage of dose excreted in urine over 0 to 72 hours), mean (SD): 0.10 (0.051) %
[2]; single oral dose 300 mg, n = 6, read-out: Cmax, mean (SD)
  Cmax: 3.4 ng/mL
[2]; single oral dose 300 mg, n = 6
  Tmax: 1 h
  half-life: 14.5 h
  fe0-72 (percentage of dose excreted in urine over 0 to 72 hours), mean (SD): 0.082 (0.025) %
[2]; single oral dose 1000 mg, n = 6, read-out: Cmax, mean (SD)
  Cmax: 4.8 ng/mL
[2]; [3]
  Tmax: 1 h
  fe0-72 (percentage of dose excreted in urine over 0 to 72 hours), mean (SD): 0.056 (0.025) %
[2]; single oral dose 1000 mg, one subject excluded
  half-life: 16.6 h
[2]; single oral dose 2000 mg, n = 6, read-out: Cmax, mean (SD)
  Cmax: 10.1 ng/mL
[2]; [4]
  Tmax: 2 h
  half-life: 16.6 h
  fe0-72 (percentage of dose excreted in urine over 0 to 72 hours), mean (SD): 0.063 (0.028) %
[2]; single oral doses up to 2000 mg
  Plasma concentrations: < 35 ng/mL
